Values quoted from earlier work, collected in patent publication US20030022912A1, “Rapid-onset medicament for treatment of sexual dysfunction” (priority 2001, published 2003).

conditions: human subjects; sublingual administration; drug as free base except where a footnote notes a salt

Row | Structure (SMILES) | sublingual Tmax [h]
1 | CN1CCc2cccc3c2[C@H]1Cc1ccc(O)c(O)c1-3 [apomorphine] | 1.02
2 | CN(C)CCCN1c2ccccc2CCc2ccc(Cl)cc21 [clomipramine] | 1.5
3 | COc1c2occc2cc2ccc(=O)oc12 [methoxsalen] | 0.417
4 | O=[N+]([O-])OCC(CO[N+](=O)[O-])O[N+](=O)[O-] [nitroglycerin] | 0.05
5 | C#CCN(C)[C@H](C)Cc1ccccc1 [selegiline] | 0.167
6 | CCCc1nn(C)c2c(=O)[nH]c(-c3cc(S(=O)(=O)N4CCN(C)CC4)ccc3OCC)nc12 [sildenafil] | 1
7 | CC(C)NCC(O)c1ccc(NS(C)(=O)=O)cc1 (centres unmarked) [sotalol] | 2.1
8 | CN1C(=O)C(O)N=C(c2ccccc2)c2cc(Cl)ccc21 (centres unmarked) [temazepam] | 1.08
